# Laboratory results reported in patent US4281136A, “2-Alkyl-3-haloisothiazolium salts and their derivatives” (Givaudan Corporation, priority 1978, dated 1981).
# Read-outs that look alike come from different tables or passages of the source.
# Tests used:
# P. piscarium = assay: slimicide for pulp and paper mill water systems, P. piscarium; type: cell-based
# Experimental: (§1) Various quantities of a 6% solution of this compound in dimethylformamide were incorporated into 24 ml of a test substrate composed as follows:
# (§2) 8.4 g Whatman No. 2 cellulose
# (§3) 1.0 g Nutrient Broth, Difco
# (§4) 10.0 ml Mersize Rm 70R (Monsanto)
# (§5) The samples were inoculated with four different organisms and incubated at 28° C. At weekly intervals the samples were examined for the presence of microbial growth and reinoculated during a total incubation period of four weeks.
# (§6) The test of Example V was used to determine the effectiveness of 4,5-dichloro-3-dicyanomethylene-2-methyl-4-isothiazoline as a slimicide.
# A. niger = assay: slimicide for pulp and paper mill water systems, A. niger; type: cell-based; conditions: for Minimum Inhibitory Concentration: A. niger
# Experimental: as §1, §2, §3, §4, §5, §6
# four different organisms = assay: slimicide for pulp and paper mill water systems, overall; type: cell-based, P. aeruginosa, E. aerogenes, A. niger, P. Piscarium; conditions: four weeks, 28° C.
# Experimental: as §1, §2, §3, §4, §5
# E. aerogenes = assay: slimicide for pulp and paper mill water systems, E. aerogenes; type: cell-based; conditions: Klebsiella aerogenes
# Experimental: as §1, §2, §3, §4, §5, §6
# P. aeruginosa = assay: slimicide for pulp and paper mill water systems, P. aeruginosa; type: cell-based; conditions: for Minimum Inhibitory Concentration: P. aeruginosa
# Experimental: as §1, §2, §3, §4, §5, §6
# Aureobasidium pullulans = assay: preservative for latex paints; type: cell-based; conditions: three weeks, 27°-28°; for Zone (zone of inhibition): listed as CH3, Cl, Cl, O3SOMe; for Surface (growth on the surface of painted square): none, medium or heavy
# Experimental: Various quantities of the chemical were incorporated into a white exterior vinyl acetate paint. Whatman #30 filter paper was painted with one coat of paint on each side. One inch squares were cut and placed in Petri dishes on a malt agar.
# The surface of both the agar and the painted squares were inoculated with a spore suspension of Aureobasidium pullulans. The plates were examined for zones of inhibition and surface growth after three weeks incubation in a humidity chamber at 27°-28°.
# Various quantities of 4,5-dichloro-2-methyl-4-isothiazolin-3-thione were incorporated into a white exterior vinyl acetate paint and tested as described in Example IV.
# Ps. aeruginosa = assay: preservative for cutting oil emulsions; type: cell-based; conditions: cutting oil emulsion, 28°, listed as CH3, Cl, Cl, O3SOMe
# Experimental: Various aliquots of a 6% solution of the chemical in ethanol were added to cutting oil emulsions prepared by diluting Kutwell 30 cutting oil concentrate 1 to 30 with water. These samples were inoculated with a culture of Ps. aeruginosa and incubated at 28° on a rotary shaker. At weekly intervals the samples were examined for microorganisms and then reinoculated and incubated.
# [1] = Conc. 0.25% in vinyl acetate paint
# [2] = Conc. 0.5% in vinyl acetate paint
smiles,measurement,setting,value
"C[n+]1sc(Cl)c(Cl)c1Cl [No. 2 (Table I), 2-Methyl-3,4,5-trichloroisothiazolium methylsulfate]",MIC,"P. piscarium; read-out: Minimum inhibitory concentration, P. Piscarium, week 1, 28° C.",3.9 µg/mL
same,MIC,"P. piscarium; read-out: Minimum inhibitory concentration, P. Piscarium, week 2, 28° C.",3.9 µg/mL
same,MIC,"P. piscarium; read-out: Minimum inhibitory concentration, P. Piscarium, week 3, 28° C.",3.9 µg/mL
same,MIC,"P. piscarium; read-out: Minimum inhibitory concentration, P. Piscarium, week 4, 28° C.",3.9 µg/mL
same,Minimum Inhibitory Concentration,"A. niger; week 2, 28° C.",3.9 µg/mL
same,Minimum Inhibitory Concentration,"A. niger; week 3, 28° C.",3.9 µg/mL
same,Minimum Inhibitory Concentration,"A. niger; week 4, 28° C.",3.9 µg/mL
same,MIC,"A. niger; Aspergillus niger, read-out: Minimum inhibitory concentration",3.9 µg/mL
same,concentration effective as a slimicide,four different organisms,< 0.01%
same,MIC,"E. aerogenes; read-out: Minimum inhibitory concentration, E. aerogenes, week 1, 28° C.",3.9 µg/mL
same,MIC,"E. aerogenes; read-out: Minimum inhibitory concentration, E. aerogenes, week 2, 28° C.",3.9 µg/mL
same,MIC,"E. aerogenes; read-out: Minimum inhibitory concentration, E. aerogenes, week 3, 28° C.",3.9 µg/mL
same,MIC,"E. aerogenes; read-out: Minimum inhibitory concentration, E. aerogenes, week 4, 28° C.",3.9 µg/mL
same,Minimum Inhibitory Concentration,"P. aeruginosa; week 2, 28° C.",7.8 µg/mL
same,Minimum Inhibitory Concentration,"P. aeruginosa; week 3, 28° C.",7.8 µg/mL
same,Minimum Inhibitory Concentration,"P. aeruginosa; week 4, 28° C.",7.8 µg/mL
same,MIC,"P. aeruginosa; Pseudomonas aeruginosa, read-out: Minimum inhibitory concentration",7.8 µg/mL
same,Zone (zone of inhibition),Aureobasidium pullulans; [1],0 mm
same,Surface (growth on the surface of painted square),Aureobasidium pullulans; [1],None
same,Zone (zone of inhibition),Aureobasidium pullulans; [2],> 20 mm
same,Surface (growth on the surface of painted square),Aureobasidium pullulans; [2],None
same,Minimum Inhibitory Concentration,Ps. aeruginosa; incubation 1 week,< 2 µg/mL
same,Minimum Inhibitory Concentration,Ps. aeruginosa; incubation 2 weeks,< 2 µg/mL
same,Minimum Inhibitory Concentration,Ps. aeruginosa; incubation 3 weeks,< 16 µg/mL
same,Minimum Inhibitory Concentration,Ps. aeruginosa; incubation 4 weeks,< 16 µg/mL
